Assay results as given in patent US20220334127A1, “IN VITRO METHOD FOR OBTAINING CLINICAL DATA IN PATIENTS SUFFERING FROM AN INFLAMMATORY DISEASE” (FUNDACIÓN PARA LA FORMACIÓN E INVESTIGACIÓN SANITARIAS DE …, priority 2019, published 2022).

Key:
[1] = Cell death (LDH assay); assay type: cell-based
Protocol: Presence of LDH in cell-free supernatants was measured using the Cytotoxicity Detection kit (Roche) following the manufacturer's instructions.

[2] = test system: P2X7 receptor; assay: Cecal ligation and puncture (CLP) sepsis model with i.p. ATP before operation; assay type: in vivo, mouse; details: wild type mice, ATP pre-treatment (FIG. 6g)
Protocol: FIG. 6. P2X7 receptor stimulation induces an impairment of the NLRP3 inflammasome in monocytes. (a-b) Percentage of monocytes with ASC-specks (a) and release of […] from PBMCs (b) isolated from healthy donor blood samples treated with ATP (3 mM, 30 min; ATP-pre), then washed and primed with or without LPS (1 μg/ml, 2 h) and then treated for 20 min with ATP (3 mM; ATP-post) or nigericin (10 μM) as indicated. (c) IL-1β release from wild type or P2rx7^−/− BMDMs treated as in a, but with 4 h LPS priming and 30 min of ATP or nigericin. […] (e) Expression of Nrlp3 and Illb genes analyzed by quantitative PCR from wild type or P2rx7^−/− BMDMs treated with ATP (3 mM, 30 min; ATP-pre), then washed and primed with or without LPS (100 ng/ml, 4 h). […]
The University of Murcia Animal Research Ethical Committee approved animal procedures (ref 5/2014) and then the Animal Health Service of the General Directorate of Fishing and Farming of the Council of Murcia (Servicio de Sanidad Animal, Dirección General de Ganaderia y Pesca, Consejeria de Agricultura y Agua Región de Murcia) approved animal procedures with ref A1320140201. […] Buprenorphine (0.3 mg/kg) was administered intraperitoneally at the time of surgery and mice were monitored continuously until recovery from anesthesia. […] Then the number of bacterial colonies was counted and expressed as CFU/ml of serum.

Nc1ncnc2c1ncn2[C@@H]1O[C@H](COP(=O)(O)OP(=O)(O)OP(=O)(O)O)[C@@H](O)[C@H]1O [ATP, adenosine triphosphate]
cell death [1]: did not induce cell death | bacterial load in the blood ([2]; 24 h after CLP): increased | release of IL-1β into the mouse peritoneum ([2]; peritoneal lavage 24 h after CLP): decreased
